We go through twelve molecules from PubChem BioAssay (NCI).

Some test systems named below: M14 melanoma; BT-549 breast; PC-3 prostate; RPMI-8226 leukemia; HOP-18 NSCLC; SN12K1 renal; P388/ADR leukemia; UACC-257 melanoma; LXFL 529 NSCLC; 786-0 renal; MDA-N; T-47D breast; MDA-MB-231 breast.
Holding throughout (test): NCI tumour cell line growth inhibition, 48 h

“And” between values parts separate entries of the source, which are not always exact repeats. Identical values can stand only once.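 In this assay, cells in 96-well plates receive the compound at five concentrations for 48 hours. Endpoints are linearly interpolated between the surrounding concentrations. Abbreviation: GI50, concentration required for 50% inhibition of growth. The concentration for full growth arrest is given as TGI.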

On to `Fc1ccc(C2CC(c3cccc(Nc4ccncc4)c3)=NN2c2cc(Cl)cc(Cl)c2)cc1` (stereo not drawn), for which the GI50 was 1.74 µM with M14 melanoma, 1.88 µM with BT-549 breast and 1.55 µM with PC-3 prostate. Moreover, the figures for the TGI in the test with M14 melanoma, with BT-549 breast and with PC-3 prostate were 3.28 µM, 3.63 µM and 3.14 µM, respectively.
Take `COC(=O)c1nc(-c2ccc3c(n2)C(=O)C(N)=C(OC)C3=O)c(N)c(-c2ccc(OC)c(OC)c2O)c1C`: the TGI with RPMI-8226 leukemia was 3.6 µM; in the test with HOP-18 NSCLC, 17.8 µM; in the test on SN12K1 renal, 3.38 µM; with P388/ADR leukemia, 3.17 µM; in the test with UACC-257 melanoma, 2.09 µM.
For the molecule `COc1ccc(C[C@H](N)C(=O)N2C[C@H](CO)C[C@H](n3ccc(=O)[nH]c3=O)C2)cc1`, the TGI with RPMI-8226 leukemia, in the test on M14 melanoma, in the test with HOP-18 NSCLC and with LXFL 529 NSCLC was above 100 µM in each case.
As for `CC(=O)OCc1cc(=O)n(C)c2c3c4c(cc12)c(C)cc(=O)n4CO3`, the TGI is 11.1 µM in the test on RPMI-8226 leukemia; 51.5 µM in the test on HOP-18 NSCLC; 5.57 µM in the test with SN12K1 renal; 3.34 µM in the test with P388/ADR leukemia; 5.42 µM with UACC-257 melanoma.
Take `[N-]=[N+]=NC1CC(n2cc(COCC(F)(F)F)c(=O)[nH]c2=O)OC1CO` (stereo not drawn): the TGI in the test on RPMI-8226 leukemia, in the test on M14 melanoma, in the test with LXFL 529 NSCLC, with 786-0 renal and in the test on UACC-257 melanoma was above 100 µM throughout.
For `CN(C)CCOC(=O)c1ccc(N)cc1`, the TGI is 75.2 µM in the test with RPMI-8226 leukemia; 34.8 µM in the test with M14 melanoma; above 100 µM with BT-549 breast; above 100 µM with MDA-N; 35.1 µM with PC-3 prostate; above 100 µM in the test with T-47D breast. The TGI with 786-0 renal was above 100 µM; in the test with MDA-MB-231 breast it was 41.1 µM; in the test with UACC-257 melanoma, 54 µM.
With `O=C1c2ccccc2C(=O)c2c1ccc1c2N=C(c2ccc(F)cc2)CC(c2ccc(Cl)c(Cl)c2)N1` (stereo not drawn), the TGI with RPMI-8226 leukemia came out at 19.3 µM; in the test on M14 melanoma it was 37.7 µM; with LXFL 529 NSCLC, 30 µM; with UACC-257 melanoma, 50 µM.
`C[C@@H]1C[C@]2(C[C@@H](C)[C@H]3C(C[C@@]4(C)CCC[C@@H]5C6=C[C@H](CCC34C)OC6=CC(=O)OC5(C)C)O2)OC1=O` (stereo partly drawn): the TGI in the test with RPMI-8226 leukemia, in the test on HOP-18 NSCLC, in the test on SN12K1 renal, in the test on P388/ADR leukemia and with UACC-257 melanoma was above 51.5 µM throughout.
As to `CCOC(=O)c1c2c(n3ccc(NC(=O)OC(C)(C)C)cc13)C(=O)c1ncccc1C2=O`, the GI50 in the test with RPMI-8226 leukemia is 0.387 µM; with M14 melanoma it was 0.0445 µM; with BT-549 breast, 0.179 µM; in the test with PC-3 prostate, 0.25 µM; in the test with T-47D breast, 0.382 µM; in the test with UACC-257 melanoma, 0.265 µM. The TGI in the test with RPMI-8226 leukemia is 3.16 µM; in the test on M14 melanoma it was 1.26 µM; in the test on BT-549 breast, 2.02 µM; in the test with PC-3 prostate it was 2.05 µM; in the test with T-47D breast, 5.31 µM; in the test on UACC-257 melanoma, 0.919 µM.
Regarding `CN(C)CCCNc1c2ccccc2nc2cccc([N+](=O)[O-])c12`, the TGI with M14 melanoma was 0.00165 µM; in the test on BT-549 breast, 0.0151 µM; in the test on MDA-N it was 0.00246 µM; with PC-3 prostate it was 0.00244 µM; in the test on 786-0 renal it was 0.0058 µM and 0.0531 µM; with MDA-MB-231 breast, 0.00712 µM. In addition, in the test with UACC-257 melanoma, the TGI was 0.00749 µM and 0.0452 µM. For the same molecule, the GI50 with UACC-257 melanoma is 0.0207 µM.
With `CSc1nc(NC2OCC(O)C(O)C2O)c(N)c(=O)n1C` (stereo not drawn), the TGI with RPMI-8226 leukemia, in the test with HOP-18 NSCLC, in the test on SN12K1 renal, in the test on P388/ADR leukemia and in the test on UACC-257 melanoma was above 100 µM in each case.
Regarding `Cc1cc(N=Cc2c(CO)cnc(C)c2O)c(N=Cc2c(CO)cnc(C)c2O)cc1C.[Zn]`, in the test on RPMI-8226 leukemia, the GI50 is above 100 µM. Besides, the TGI in the test with RPMI-8226 leukemia, in the test with M14 melanoma, in the test with BT-549 breast, in the test on MDA-N, in the test with PC-3 prostate and in the test with T-47D breast was above 100 µM each time. The TGI with 786-0 renal, in the test with MDA-MB-231 breast and in the test with UACC-257 melanoma was above 100 µM throughout.
